According to the supplement of paper PMC10883282:

Assays:
Assay in all cases: relative viability vs DMSO control (72 h) (fraction); higher = more viable cells
[1] = test system: KHOS-240S
Procedure, shortened: (§1)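 Relative viability is percent growth read by ATPLite and averaged over up to triplicate wells. Sarcoma cells were seeded in 384-well plates to reach 80–90% confluence and given 2.5 µl of serially diluted compound after 24 h, from source plates of 10 mM to 0.0002 mM. Incubation lasted 72 h at 37 °C, 5% CO2, with 0.1% DMSO vehicle and a 5 µM positive control, and the data were rescaled so 1 equals full and 0 equals none.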

[2] = test system: MES-SA
Procedure, shortened: as §1

[3] = test system: RD
Procedure, shortened: as §1

[4] = test system: SW1353
Procedure, shortened: as §1

[5] = test system: SYO-1
Procedure, shortened: as §1

C[C@@H]1COC(Nc2ccc3ncnc(Nc4ccc(OCc5nccs5)c(Cl)c4)c3c2)=N1 [Varlitinib]
relative viability
Settings | [1] | [2] | [3] | [4] | [5]
0.00017 µM | 1.02 | 0.965 | 0.983 | 1.03 | 1.04
0.00051 µM | 1.03 | 0.965 | 0.984 | 0.981 | 1.04
0.00152 µM | 1.02 | 0.934 | 0.997 | 0.968 | 1.03
0.00457 µM | 1.05 | 0.97 | 1.02 | 1.04 | 1.03
0.01372 µM | 1.048 | 0.946 | 0.998 | 0.978 | 1.02
0.04115 µM | 1.05 | 0.9545 | 1.02 | 1.01 | 1.03
0.1235 µM | 1.05 | 0.945 | 1.05 | 0.947 | 1.02
0.3704 µM | 0.996 | 0.888 | 1 | 0.886 | 1.02
1.111 µM | 0.9899 | 0.888 | 1.04 | 0.824 | 1.01
3.333 µM | 0.947 | 0.807 | 1.05 | 0.812 | 0.941
10 µM | 0.849 | 0.45 | 1.05 | 0.738 | 0.55

COc1cc2nccc(Oc3ccc(NC(=O)NC4CC4)c(Cl)c3)c2cc1C(N)=O [Lenvatinib]
relative viability
Settings | [1] | [2] | [3] | [4] | [5]
0.00017 µM | 0.992 | 1.01 | 0.985 | 1.01 | 1.07
0.00051 µM | 1 | 0.958 | 0.993 | 0.999 | 1.02
0.00152 µM | 1.03 | 0.971 | 1.04 | 0.986 | 1.02
0.00457 µM | 1.01 | 0.9651 | 1.04 | 0.982 | 0.9627
0.01372 µM | 0.977 | 0.942 | 1.02 | 0.931 | 0.864
0.04115 µM | 0.938 | 0.939 | 1.02 | 0.943 | 0.721
0.1235 µM | 0.913 | 0.964 | 1.04 | 0.902 | 0.606
0.3704 µM | 0.824 | 0.936 | 1.047 | 0.872 | 0.504
1.111 µM | 0.738 | 0.765 | 1.04 | 0.859 | 0.472
3.333 µM | 0.72 | 0.597 | 1.08 | 0.83 | 0.459
10 µM | 0.6606 | 0.454 | 0.984 | 0.817 | 0.432

COc1cc2ncnc(Nc3ccc(F)c(Cl)c3)c2cc1NC(=O)/C=C/CN1CCCCC1 [Dacomitinib]
relative viability
Settings | [1] | [2] | [3] | [4] | [5]
0.00017 µM | 1.08 | 0.967 | 1.103 | 1.06 | 1.02
0.00051 µM | 1.09 | 0.942 | 1.09 | 1.05 | 1.02
0.00152 µM | 1.09 | 0.949 | 1.12 | 1.02 | 1.01
0.00457 µM | 1.06 | 0.932 | 1.141 | 0.9671 | 1.02
0.01372 µM | 1.06 | 0.926 | 1.13 | 0.927 | 1
0.04115 µM | 1.06 | 0.927 | 1.12 | 0.884 | 1.01
0.1235 µM | 1.08 | 0.893 | 1.12 | 0.8331 | 0.986
0.3704 µM | 1.01 | 0.879 | 1.08 | 0.764 | 0.888
1.111 µM | 0.936 | 0.731 | 0.976 | 0.665 | 0.824
3.333 µM | 0.579 | 0.342 | 0.347 | 0.401 | 0.287
10 µM | 0.0145 | 0.00577 | 0.00617 | 0.0104 | -0.0103

N#CCC1(n2cc(-c3ncnc4[nH]ccc34)cn2)CN(C2CCN(C(=O)c3ccnc(C(F)(F)F)c3F)CC2)C1 [Itacitinib]
relative viability
Settings | [1] | [2] | [3] | [4] | [5]
0.00017 µM | 1.05 | 0.921 | 1.01 | 0.987 | 0.969
0.00051 µM | 1.04 | 0.934 | 1.02 | 1 | 0.921
0.00152 µM | 1.04 | 0.919 | 1.02 | 0.982 | 0.927
0.00457 µM | 1.06 | 0.908 | 1.07 | 0.937 | 0.91
0.01372 µM | 1.02 | 0.922 | 1.08 | 0.96 | 0.859
0.04115 µM | 1.01 | 0.894 | 1.05 | 0.939 | 0.825
0.1235 µM | 0.984 | 0.909 | 1.05 | 0.955 | 0.802
0.3704 µM | 0.999 | 0.886 | 1.03 | 0.937 | 0.792
1.111 µM | 0.97 | 0.898 | 1.04 | 0.933 | 0.752
3.333 µM | 0.95 | 0.864 | 1.04 | 0.929 | 0.72
10 µM | 0.923 | 0.827 | 1.06 | 0.87 | 0.698

COc1cc2nccc(Oc3ccc(NC(=O)C4(C(=O)Nc5ccc(F)cc5)CC4)cc3)c2cc1OC [Cabozantinib]
relative viability
Settings | [1] | [2] | [3] | [4] | [5]
0.00017 µM | 1.11 | 0.994 | 1.073 | 1.05 | 1
0.00051 µM | 1.08 | 0.953 | 1.09 | 1.02 | 1
0.00152 µM | 1.08 | 0.947 | 1.09 | 1.04 | 0.974
0.00457 µM | 1.06 | 0.948 | 1.12 | 0.987 | 0.91
0.01372 µM | 1.06 | 0.934 | 1.11 | 1.01 | 0.915
0.04115 µM | 1.07 | 0.929 | 1.12 | 1.01 | 0.751
0.1235 µM | 1.02 | 0.912 | 1.13 | 0.904 | 0.708
0.3704 µM | 1.04 | 0.89 | 1.11 | 0.8127 | 0.627
1.111 µM | 0.974 | 0.807 | 1.13 | 0.783 | 0.451
3.333 µM | 0.6869 | 0.262 | 0.864 | 0.54 | 0.322
10 µM | 0.425 | 0.163 | 0.501 | 0.317 | 0.129

Cc1cc(Nc2ncc(Cl)c(Nc3ccccc3S(=O)(=O)C(C)C)n2)c(OC(C)C)cc1C1CCNCC1 [Ceritinib]
relative viability
Settings | [1] | [2] | [3] | [4] | [5]
0.00017 µM | 0.991 | 0.953 | 0.996 | 0.94 | 1.02
0.00051 µM | 0.992 | 0.92 | 1.02 | 0.939 | 1.02
0.00152 µM | 1 | 0.95 | 1.04 | 0.969 | 1.06
0.00457 µM | 1.01 | 0.951 | 0.996 | 0.953 | 1.07
0.01372 µM | 1.01 | 0.963 | 1.03 | 0.948 | 1.05
0.04115 µM | 1.02 | 0.969 | 1.02 | 0.953 | 1.01
0.1235 µM | 0.9951 | 0.96 | 0.947 | 0.932 | 0.987
0.3704 µM | 0.897 | 0.98 | 0.771 | 0.89 | 0.919
1.111 µM | 0.826 | 0.94 | 0.576 | 0.901 | 0.882
3.333 µM | 0.439 | 0.676 | 0.381 | 0.137 | 0.51
10 µM | 0.0022 | -0.00177 | 0.001 | 0.00227 | -0.00767

C=CC(=O)Nc1cccc(Nc2nc(Nc3ccc(N4CCN(C(C)=O)CC4)cc3OC)ncc2C(F)(F)F)c1 [Rociletinib]
relative viability
Settings | [1] | [2] | [3] | [4] | [5]
0.00017 µM | 1.08 | 0.95 | 1.04 | 1.04 | 0.99
0.00051 µM | 1.06 | 0.955 | 1.078 | 1 | 0.983
0.00152 µM | 1.07 | 0.942 | 1.08 | 1.01 | 0.949
0.00457 µM | 1.07 | 0.957 | 1.112 | 1.06 | 0.93
0.01372 µM | 1.07 | 0.942 | 1.11 | 1 | 0.893
0.04115 µM | 1.03 | 0.944 | 1.08 | 1.01 | 0.903
0.1235 µM | 1.08 | 0.926 | 1.11 | 1.01 | 0.872
0.3704 µM | 1.02 | 0.9383 | 1.05 | 0.962 | 0.867
1.111 µM | 0.928 | 0.765 | 0.911 | 0.769 | 0.749
3.333 µM | 0.774 | 0.329 | 0.594 | 0.594 | 0.459
10 µM | 0.491 | 0.193 | 0.293 | 0.338 | 0.118

Cc1cn(-c2cc(NC(=O)c3ccc(C)c(Nc4nccc(-c5cccnc5)n4)c3)cc(C(F)(F)F)c2)cn1 [Nilotinib]
relative viability
Settings | [1] | [2] | [3] | [4] | [5]
0.00017 µM | 1.04 | 0.882 | 1.06 | 0.933 | 0.904
0.00051 µM | 1.02 | 0.867 | 1.07 | 0.951 | 0.868
0.00152 µM | 1.03 | 0.874 | 1.09 | 0.935 | 0.899
0.00457 µM | 1.02 | 0.875 | 1.08 | 0.967 | 0.865
0.01372 µM | 1.03 | 0.88 | 1.11 | 0.969 | 0.818
0.04115 µM | 1.01 | 0.94 | 1.12 | 1.01 | 0.84
0.1235 µM | 0.999 | 0.938 | 1.11 | 1.05 | 0.802
0.3704 µM | 0.998 | 0.93 | 1.07 | 1.09 | 0.6513
1.111 µM | 0.907 | 0.891 | 0.898 | 1.08 | 0.598
3.333 µM | 0.847 | 0.659 | 0.731 | 0.994 | 0.522
10 µM | 0.658 | 0.594 | 0.6531 | 0.846 | 0.446
